Assay results published in patent US7196110B2, “N-substituted tricyclic 3-aminopyrazoles as inhibitors for the treatment of cell proliferative disorders” (Janssen Phamaceutica N.V., priority 2002, dated 2007).
Read-outs that look alike come from different tables or passages of the source.

Target: T1, PDGF-receptor beta enzyme comprising the tyrosine kinase domain (Homo sapiens, UniProt P09619)
T1 construct: from amino acid 545 to 1106 of GenBank Access NO: AAA36427
Assay: Inhibition of PDGF-receptor kinase activity (cell-free, PLC1 peptide, 33P Flashplate)
Type: biochemical
Conditions: for inhibition at 10 µM: compound at 10 uM, read-out: Percent Inhibition @ 10 uM
In short: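 The IC50 is the inhibitor level halving kinase activity relative to inhibitor-free wells, measured as 33P captured on a streptavidin-bound biotin-PLC1 peptide. The reaction ran 60 min at 30 °C in pH 8 Tris buffer with 1 mM DTT, 5 μM ATP and the 545–1106 kinase-domain enzyme.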

[1] = PDGF-R kinase activity, read-out: IC50
[2] = read-out: IC50 (μM) on PDGF-R kinase activity

T1 sequence (P09619 545-1106): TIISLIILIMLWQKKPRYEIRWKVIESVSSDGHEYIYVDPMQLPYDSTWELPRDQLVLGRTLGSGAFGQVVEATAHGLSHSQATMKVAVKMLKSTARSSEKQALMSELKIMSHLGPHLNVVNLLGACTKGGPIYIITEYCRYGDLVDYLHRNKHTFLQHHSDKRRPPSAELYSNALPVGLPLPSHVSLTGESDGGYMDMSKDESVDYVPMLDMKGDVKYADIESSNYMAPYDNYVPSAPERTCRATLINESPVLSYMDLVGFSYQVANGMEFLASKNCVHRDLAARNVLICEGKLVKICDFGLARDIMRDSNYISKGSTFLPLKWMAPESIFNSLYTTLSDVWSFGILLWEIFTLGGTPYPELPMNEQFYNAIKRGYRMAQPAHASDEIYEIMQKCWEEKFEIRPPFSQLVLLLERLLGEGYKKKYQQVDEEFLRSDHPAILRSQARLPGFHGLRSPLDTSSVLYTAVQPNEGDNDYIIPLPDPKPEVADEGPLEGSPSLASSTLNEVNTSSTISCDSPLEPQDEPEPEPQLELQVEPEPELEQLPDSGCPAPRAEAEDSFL

Compound	inhibition at 10 µM (PDGF-R kinase activity)	IC50 [1]	IC50 [2]
COc1cc2c(cc1OC)C(C(C)C)c1c-2n[nH]c1Nc1cccc(Br)c1 (stereo not shown) [Compound 538, (3-Bromo-phenyl)-(4-isopropyl-6,7-dimethoxy-2,4-dihydro-indeno[1,2-c]pyrazol-3-yl)-amine]	65%	–	–
COc1cc2c(cc1OC)C(C(C)C)c1c-2n[nH]c1Nc1cccc(Cl)c1 (stereo not shown) [Compound 540, (3-Chloro-phenyl)-(4-isopropyl-6,7-dimethoxy-2,4-dihydro-indeno[1,2-c]pyrazol-3-yl)-amine]	47%	14.7 µM	–
COc1cccc(Nc2[nH]nc3c2C(C(C)C)c2cc(OC)c(OC)cc2-3)c1 (stereo not shown) [Compound 541, (4-lsopropyl-6,7-dimethoxy-2,4-dihydro-indeno[1,2-c]pyrazol-3-yl)-(3-methoxy-phenyl)-amine]	50%	44.2 µM	–
COc1cc2c(cc1OC)-c1c(c(Nc3cccc(F)c3)nn1C(=O)NCCNC(=O)c1ccccc1O)C2 [Compound 542, 3-(3-Fluoro-phenylamino)-6,7-dimethoxy-4H-indeno[1,2-c]pyrazole-1-carboxylic acid [2-(2-hydroxy-benzoylamino)-ethyl]-amide]	21%	–	–
COc1cc2c(cc1OC)-c1c(c(Nc3cccc(F)c3)nn1C(=O)NCCOCCOCCO)C2 [Compound 544, 3-(3-Fluoro-phenylamino)-6,7-dimethoxy-4H-indeno[1,2-c]pyrazole-1-carboxylic acid {2-[2-(2-hydroxy-ethoxy)-ethoxy]-ethyl}-amide]	60%	–	–
CCC1c2cc(OC)c(OC)cc2-c2c1c(Nc1cccc(Br)c1)nn2C(=O)c1ccccc1 (stereo not shown) [Compound 546, [3-(3-Bromo-phenylamino)-4-ethyl-6,7-dimethoxy-4H-indeno[1,2-c]pyrazol-1-yl]-phenyl-methanone]	72.5%	–	–
CCC1c2cc(OC)c(OC)cc2-c2c1c(Nc1cccc(Br)c1)nn2C(=O)OCCOCCOCCO (stereo not shown) [Compound 547, 3-(3-Bromo-phenylamino)-4-ethyl-6,7-dimethoxy-4H-indeno[1,2-c]pyrazole-1-carboxylic acid 2-[2-(2-hydroxy-ethoxy)-ethoxy]-ethyl ester]	68.5%	–	–
COc1cc2c(cc1OC)C(C)c1c(Nc3cccc(Br)c3)nn(C(=O)OCCOCCOCCO)c1-2 (stereo not shown) [Compound 548, 3-(3-Bromo-phenylamino)-6,7-dimethoxy-4-methyl-4H-indeno[1,2-c]pyrazole-1-carboxylic acid 2-[2-(2-hydroxy-ethoxy)-ethoxy]-ethyl ester]	82.5%	0.214 µM	–
COc1cc2c(cc1OCc1ccccc1)-c1n[nH]c(Nc3cccc(F)c3)c1C2 [Compound 549, (7-Benzyloxy-6-methoxy-2,4-dihydro-indeno[1,2-c]pyrazol-3-yl)-(3-fluoro-phenyl)-amine]	106%	0.0911 µM	–
COc1cc2c(cc1OC)[C@@H](C)c1c-2n[nH]c1Nc1cccc(Br)c1 [Compound 553, (4R)-N-(3-bromo-phenyl)-(6,7-dimethoxy-4-methyl-2,4-dihydro-indeno[1,2-c]pyrazol-3-yl)-amine]	99.5%	0.0065 µM	–
COc1cc2c(c(NC(C)=O)c1OC)Cc1c-2n[nH]c1Nc1cccc(F)c1 [Compound 557, N-[3-(3-Fluoro-phenylamino)-6,7-dimethoxy-2,4-dihydro-indeno[1,2-c]pyrazol-5-yl]-acetamide]	102%	0.0325 µM	–
COc1cc2c(c(N)c1OC)Cc1c-2n[nH]c1Nc1cccc(F)c1 [Compound 558, N3-(3-Fluoro-phenyl)-6,7-dimethoxy-2,4-dihydro-indeno[1,2-c]pyrazole-3,5-diamine]	102%	0.0121 µM	–
COc1cccc(Nc2n[nH]c3c2Cc2c-3cc(OC)c3oc(C)nc23)c1 [Compound 560, (4-Methoxy-2-methyl-6,9-dihydro-3-oxa-1,6,7-triaza-cyclopenta[b]-as-indacen-8-yl)-(3-methoxy-phenyl)-amine]	102%	0.0247 µM	–
COc1cc2c(cc1OC)-c1n[nH]c(Nc3ccccn3)c1C2 [Compound 562, (6,7-Dimethoxy-2,4-dihydro-indeno[1,2-c]pyrazol-3-yl)-pyridin-2-yl-amine]	93.5%	0.084 µM	–
COc1cc2c(cc1OC)-c1n[nH]c(NCc3ccccn3)c1C2 [Compound 563, (6,7-Dimethoxy-2,4-dihydro-indeno[1,2-c]pyrazol-3-yl)-pyridin-2-ylmethyl-amine]	89%	1.45 µM	–
COc1cc2c(cc1OC)-c1n[nH]c(NCc3cccnc3)c1C2 [Compound 564, (6,7-Dimethoxy-2,4-dihydro-indeno[1,2-c]pyrazol-3-yl)-pyridin-3-ylmethyl-amine]	99.5%	0.886 µM	–
COc1cc2c(cc1OC)-c1n[nH]c(Nc3cccc4c3OC(F)(F)O4)c1C2 [Compound 565, (2,2-Difluoro-benzo[1,3]dioxol-4-yl)-(6,7-dimethoxy-2,4-dihydro-indeno[1,2-c]pyrazol-3-yl)-amine]	41.5%	–	–

Compound	inhibition at 10 µM (PDGF-R kinase activity)	IC50 [1]	IC50 [2]
COc1cc2c(cc1OC)-c1n[nH]c(N3CCc4ccccc43)c1C2 [Compound 566, 3-(2,3-Dihydro-indol-1-yl)-6,7-dimethoxy-2,4-dihydro-indeno[1,2-c]pyrazole]	54%	–	–
COc1cc2c(cc1OC)-c1n[nH]c(N3CCc4cc(Br)ccc43)c1C2 [Compound 567, 3-(5-Bromo-2,3-dihydro-indol-1-yl)-6,7-dimethoxy-2,4-dihydro-indeno[1,2-c]pyrazole]	39.5%	–	–
COc1cc2c(cc1OC)-c1c(c(Nc3cccc(F)c3)nn1CCO)C2 [Compound 572, 2-[3-(3-Fluoro-phenylamino)-6,7-dimethoxy-4H-indeno[1,2-c]pyrazol-1-yl]-ethanol]	67%	–	7.33 µM
COc1cc2c(cc1OC)-c1nn(CCO)c(Nc3cccc(F)c3)c1C2 [Compound 573, 2-[3-(3-Fluoro-phenylamino)-6,7-dimethoxy-4H-indeno[1,2-c]pyrazol-2-yl]-ethanol]	52%	–	–
COc1cc2c(c3nc(C)oc13)Cc1c(NCc3ccccc3F)n[nH]c1-2 [Compound 574, (2-Fluoro-benzyl)-(4-methoxy-2-methyl-6,9-dihydro-3-oxa-1,6,7-triaza-cyclopenta[b]-as-indacen-8-yl)-amine]	99%	–	0.163 µM
COc1cc2c(cc1OC)-c1n[nH]c(NCc3ccccc3Br)c1C2 [Compound 575, (2-Bromo-benzyl)-(6,7-dimethoxy-2,4-dihydro-indeno[1,2-c]pyrazol-3-yl)-amine]	99.5%	–	0.00213 µM
COc1cc2c(cc1OC)-c1n[nH]c(Nc3ncc(Br)cc3C)c1C2 [Compound 576, (5-Bromo-3-methyl-pyridin-2-yl)-(6,7-dimethoxy-2,4-dihydro-indeno[1,2-c]pyrazol-3-yl)-amine]	18%	–	33.3 µM
COc1cc2c(cc1OC)-c1n[nH]c(Nc3cnccc3C(F)(F)F)c1C2 [Compound 577, (6,7-Dimethoxy-2,4-dihydro-indeno[1,2-c]pyrazol-3-yl)-(4-trifluoromethyl-pyridin-3-yl)-amine]	19%	–	362 µM
CNC(=O)n1nc2c(c1Nc1cccc(F)c1)Cc1cc(OC)c(OC)cc1-2 [Compound 579, 3-(3-Fluoro-phenylamino)-6,7-dimethoxy-4H-indeno[1,2-c]pyrazole-2-carboxylic acid methylamide]	28%	–	–
CNC(=S)n1nc2c(c1Nc1cccc(F)c1)Cc1cc(OC)c(OC)cc1-2 [Compound 580, 3-(3-Fluoro-phenylamino)-6,7-dimethoxy-4H-indeno[1,2-c]pyrazole-2-carbothioic acid methylamide]	93%	–	0.126 µM
CNC(=S)n1nc(Nc2cccc(F)c2)c2c1-c1cc(OC)c(OC)cc1C2 [Compound 581, 3-(3-Fluoro-phenylamino)-6,7-dimethoxy-4H-indeno[1,2-c]pyrazole-1-carbothioic acid methylamide]	90.5%	–	1.14 µM
COc1cc2c(cc1OC)-c1n[nH]c(Nc3ncccc3Br)c1C2 [Compound 582, (3-Bromo-pyridin-2-yl)-(6,7-dimethoxy-2,4-dihydro-indeno[1,2-c]pyrazol-3-yl)-amine]	82.5%	–	1.25 µM
COc1cc2c(cc1OC)-c1n[nH]c(Nc3ccc(Br)cn3)c1C2 [Compound 583, (5-Bromo-pyridin-2-yl)-(6,7-dimethoxy-2,4-dihydro-indeno[1,2-c]pyrazol-3-yl)-amine]	82%	–	1.1 µM
COc1cc2c(cc1OC)-c1n[nH]c(Nc3cccc(OC(C)C)c3)c1C2 [Compound 584, (6,7-Dimethoxy-2,4-dihydro-indeno[1,2-c]pyrazol-3-yl)-(3-isopropoxy-phenyl)-amine]	109%	–	0.0111 µM
COc1cc2c(cc1OC)-c1n[nH]c(Nc3ncccc3C)c1C2 [Compound 587, (6,7-Dimethoxy-2,4-dihydro-indeno[1,2-c]pyrazol-3-yl)-(3-methyl-pyridin-2-yl)-amine]	86%	–	1.7 µM
COc1cc2c(cc1OC)-c1n[nH]c(Nc3cc(C)cc(C)n3)c1C2 [Compound 588, (6,7-Dimethoxy-2,4-dihydro-indeno[1,2-c]pyrazol-3-yl)-(4,6-dimethyl-pyridin-2-yl)-amine]	103%	–	0.556 µM
COc1cc2c(cc1OC)-c1n[nH]c(N(c3cccc(F)c3)[C@@H]3O[C@H](C(=O)O)[C@@H](O)[C@H](O)[C@H]3O)c1C2 [Compound 591, 6-[(6,7-Dimethoxy-2,4-dihydro-indeno[1,2-c]pyrazol-3-yl)-(3-fluoro-phenyl)-amino]-3,4,5-trihydroxy-tetrahydro-pyran-2-carboxylic acid]	96%	–	0.662 µM
